The values that follow come from patent US20060142382A1, “Skin lightening composition” (priority 2002, published 2006).

The test system of the assay is Kwl:A-1 brown guinea pigs. Description: Pigmentation inhibitory effect: UVB-induced pigmentation in brown guinea pigs, L value (lightness) by color-difference meter. The assay is classed as in vivo, guinea pig. As to conditions: 10 ml/kg; for Final day of the test L value: L value (lightness) of the irradiated site on final day (14 days), oral, twice a day, UVB on day 0, 2nd and 4th days; for ΔL value: L value on the observation day minus L value before irradiation, final day (14 days), oral twice a day, larger ΔL values show higher effect. An excerpt: Ultraviolet ray (UVB) irradiation time was examined using two female 6-week-old Kwl:A-1 brown guinea pigs (SPF). That is, one of the guinea pigs was fixed on the abdominal position, and three 2 cm×2 cm square ultraviolet ray irradiating sites were arranged in bilateral symmetry with the dorsal midline between, thus six sites in total. By shading the body except for the ultraviolet ray irradiating sites, an ultraviolet ray (UVB) was irradiated from a distance of 40 cm using five SE lamps (wavelength 250 to 350 nm, F[…]-E, manufactured by TOSHIBA). […] Examination was made by using five female 7-week-old Kwl:A-1 brown guinea pigs (SPF) in one group. That is, each of the guinea pigs was fixed on the abdominal position using a fixation plate on the respective ultraviolet ray irradiating days (on the day of the commencement of sample administration and on the 2nd and 4th days thereafter). One 2 cm×2 cm square arranged on the left or right side with the guinea pig dorsal midline between was used as the ultraviolet ray irradiating site, and the body was shaded except for the ultraviolet ray irradiating site. Two guinea pigs in one group were irradiated with an ultraviolet ray (LTVB) for 11 minutes and 30 seconds, and three guinea pigs in one group, from a distance of 40 cm using five SE lamps (wavelength 250 to 350 nm, F[…]·E, manufactured by TOSHIBA). During the testing period (14 days), each test sample was orally administered twice a day. Each sample solution was administered at a dose of 10 ml/kg. In this case, the administration was carried out after the ultraviolet ray irradiation on each ultraviolet ray irradiation day, or after the judgment on each pigmentation judging day. Before the irradiation on the day of the commencement of test sample administration and on the final day of the test, a ΔL value (L value on the observation day-L value before irradiation) was calculated by measuring L value (lightness) of the irradiated site using a color-difference meter (CR-300, manufactured by MINOLTA CAMERA).

Turning to `NC[C@H]1CC[C@H](C(=O)O)CC1` [Sample (2), tranexamic acid], the “Final day of the test L value” is listed as 58.30 ± 1.20 and the ΔL value is on record as −3.76 ± 1.78.

For the compound `O=C1O[C@H]([C@@H](O)CO)C(O)=C1O` [Sample (4), ascorbic acid], the “Final day of the test L value” came to 57.35 ± 1.56 and the ΔL value is −4.76 ± 1.62.

Consider `N[C@@H](CS)C(=O)O` [Sample (3), L-cysteine], for which the “Final day of the test L value” came out at 59.52 ± 3.10 and the ΔL value is −3.32 ± 1.70.
